Experimental data: patent publication US20120251628A1, “COMPOSITIONS AND METHODS FOR TREATMENT OF CANCER” (priority 2011, published 2012)

Key:
[1] = Histologic analysis of normal organ tissues for ischemic damage; type: in vivo, mice; details: 10 mg/kg intraperitoneal; 8, 24 and 48 hours after injection
Description: Seven-week-old, female, specific-pathogen-free (BALB/c) white mice (weight: approximately 20 g) purchased from ORIENTBIO Inc. (Seoul Korea) were subcutaneously injected with 2×10^6 cells of the CT26 colon carcinoma cell line per mouse. When the tumor size reached 3 mm in diameter, the control group was injected with a phosphate buffered saline (PBS) solution with 5% dextrose while the experimental group was intraperitoneally injected with 100 μL of KML001 at a concentration of 10 mg/kg with 5% dextrose. At 8, 24 and 48 hours after injection, liver, spleen and tumor tissue samples were taken and placed into a 37% solution of formaldehyde for 24 hours. The tissues were inserted into paraffin and sectioned at 4 μm on a microtome (made by SLEE MAINZ GmbH in Germany) and the sections were placed on slides.

α-tubulin = test: Western blot of total tubulin protein from HUVECs; type: cell-based, Human; details: 5, 10, 20 and 50 uM, 24 and 48 hours, higher concentration
Description: (§1) To analyze the change in the overall expression of tubulin, the total amount of tubulin protein was kept to identify by western blotting. HUVECs were cultured in F25 culture flasks containing F-12K (Sigma) medium supplemented with 10% FBS and endothelial cell growth supplement (ECGS, E2759, Sigma). After cultivation for 24 hours, the cells were treated with sodium meta arsenite at concentrations of 5 uM, 10 uM, 20 uM and 50 uM. At 24 hours and 48 hours after treatment, the cells were collected and washed with phosphate buffered saline (PBS) solution. The washed cells were reacted with THF solution (50 mM Tris-Hcl, pH 7.5, 100 mM NaCl, 2 mM EDTA, 1% NP-40, protease inhibitor) at 4° C. for 15 minutes and then broken down or destroyed by use of an ultrasonic cell crusher before SDS (0.5%) was added. Protein from the samples was assayed by using a BCA protein kit (Thermo, 23227) before the same amount of protein (3 μg) was mixed with protein sample buffer. […] warmed up in a water bath in boiling water at 100° C. for five minutes. SDS-PAGE was conducted using a 10% polyacrylamide gel. At the end of electrophoresis, the gel was transferred to nitrocellulose membrane in semi-dry method at room temperature at 220 mA for 40 minutes. […]

β-tubulin = test: Western blot of total tubulin protein from HUVECs; type: cell-based, Human; details: 5, 10, 20 and 50 uM, 24 and 48 hours, higher concentration
Description: as §1

[2] = system: CT26 colon carcinoma cells; test: Anti-tumor effect in mice bearing subcutaneous CT26 tumors, alone or with irinotecan; type: in vivo
Description: Female BALBc mice bearing subcutaneous CT26 colon carcinoma cells were injected intraperitoneally with sodium meta arsenite (10/mg/kg body weight) or irinotecan alone, or co-administered weekly for four weeks.

tumors = test: Cell and animal experiments with KML001 injected after tumors were generated; type: in vivo
[3] = system: CT26 (mouse colon cancer); test: DCE-MRI of tumor vascularity (Kep) in CT26 tumor mice; type: in vivo
Description: To determine whether the occurrence of central necrosis of tumors 24 hours after treatment was caused by the reduction of vascularity, DCE-MRI was used before the medication was administered and 24 hours after administration.
Inoculate CT26 (mouse colon cancer) 2×10^6 cell subcutaneously into mice on the upper parts of their thighs.
After checking the tumor size between 6 to 10 mm, acquire images through MRI.
Image Acquisition: Use a magnetic resonance imaging device (i.e., 3 Tesla Intera human clinical scanner; Philips medical systems) and a mouse coil with an inner diameter of 4 cm to get images. Acquire images before the drug is administered and those 24 hours after that for two days.
MR Pulse Sequence as follows: Dynamic Contrast enhanced MRI scan: FOV (mm)=50×35; RFOV (%)=71; Matrix scan=112; reconstruction=224; TR/TE (ms)=12/4.0; slice thickness=1 mm; slice number=11; dynamic scans=60.
i. Conduct an experiment to the subjects under anesthesia by using an inhalation anesthetic mixing 1.5% isoflurane in 100% oxygen at a flow rate of 1 L/min.
ii. Cannulate an intravenous injection line through the tail vein to inject a contrast agent.
iii. Use Gd-DTPA (Magnevist, Schering, Germany, 281 mg/kg) as a contrast agent and get pre-contrast images before injecting the contrast agent and post-contrast images after injecting it.
iv. After getting the images, inject KML001 (10 mg/kg) and Arsenic trioxide (7.5 mg/kg) intraperitoneally.
v. Get images through a dynamic scan again 24 hours after injection.
Accordingly, the groups of animals with which the DCE-MRI data was obtained are as follows: Group of animals treated with ATO: n=4, Group of animals treated with Saline: n=4 and Group of animals treated with KML001: n=6.
As the low data in MRI was mapped from each result of the DCE-MRI to the positive control group of animals treated with ATO, the negative control group of animals treated with saline and the experimental group of animals treated with KML001, Kep values important for tumor vascularity were calculated. Kep (rate constant) is the back diffusion rate constant from interstitial space to vascular space, reflecting leakage of tumor vessels, i.e., a measurement of vascularity.

[4] = injected after tumors were generated

Which “ischemic damage in liver, spleen or kidney tissues” value [1] does the source give for `O=[As][O-].[Na+]` [sodium meta arsenite] here?
The value was “No ischemic damage was observed”.

What about the “protein level of α-tubulin” value (α-tubulin) of the same molecule?
The value was “reduced the protein level”.

And the “protein level of β-tubulin” value (β-tubulin)?
Its value is “reduced the protein level”.

And the tumor growth delay ([2]; sodium meta arsenite administered 24 hours or 72 hours after irinotecan, weekly for four weeks)?
The tumor growth delay was “Significant tumor growth delay”.

What about the tumor regrowth ([2]; sodium meta arsenite alone, 10 mg/kg intraperitoneal) of the same molecule?
Its tumor regrowth is “regrowth was observed from the periphery after two days”.

What about the “necrosis of the tumor” value ([2]; sodium meta arsenite alone, 10 mg/kg intraperitoneal, by 24 hours after treatment) of the same molecule?
Its value is “Massive necrosis in the central part of the tumor”.

What about the apoptosis (tumors; cell experiments and animal experiments) of the same molecule?
Its apoptosis is “occurred dose-dependently”.

And the “necrotic phenomena in tumor tissues” value (tumors; [4])?
Its value is “occurred”.

And the “reduction in tumor volume” value (tumors; [4])?
Its value is “no effect”.

What about the “Kep values (back diffusion rate constant, tumor vascularity)” value ([3]; 24 hours after intraperitoneal injection vs pre-treatment, KML001 10 mg/kg, ATO 7.5 mg/kg) of the same molecule?
The value was “significantly reduced”.

And the “contrast enhancement of the tumors in the MRI” value ([3]; 24 hours after treatment)?
The value was “decreased”.
